Results from BigSolDB 2.1.

C[C@@H]1O[C@@H]1P(=O)([O-])[O-].[Na+].[Na+]
solubility (mole fraction)
Settings | 283.15 K | 288.15 K | 293.15 K | 298.15 K | 303.15 K | 308.15 K | 313.15 K | 318.15 K | 323.15 K
in DMF | 0.000606 | 0.000532 | 0.000481 | 0.000443 | 0.000396 | 0.000358 | 0.000339 | 0.000312 | 0.000291
in acetone | 0.000186 | 0.00016 | 0.000138 | 0.000115 | 9.72e-05 | 8.3e-05 | 7.09e-05 | 6.07e-05 | 5.47e-05
in cyclohexane | 0.000403 | 0.000353 | 0.0003 | 0.000252 | 0.000226 | 0.000196 | 0.000175 | 0.000151 | 0.000128
in ethanol | 0.00109 | 0.000934 | 0.000769 | 0.000643 | 0.000548 | 0.000463 | 0.000383 | 0.000316 | 0.000266
in methanol | 0.0177 | 0.0165 | 0.0152 | 0.0138 | 0.0129 | 0.0121 | 0.0111 | 0.0105 | 0.00984
in n-propanol | 0.000108 | 8.01e-05 | 6.19e-05 | 4.52e-05 | 3.09e-05 | 1.95e-05 | 1.34e-05 | 1.04e-05 | 7.1e-06
